Measurements as given in patent publication US20240270701A1, “BETA ADRENERGIC AGONIST AND METHODS OF USING THE SAME” (Curasen Therapeutics, Inc., priority 2021, published 2024).
Where two headings read alike, the source gives them in different places.

Key:
B2-AR = target: T1, B2-AR (Homo sapiens, UniProt P07550); experiment: cAMP Gs dynamic HTRF assay, cells expressing beta-adrenergic receptor (CHO-K1), B2-AR; type: cell-based; conditions: for Emax: relative to full agonist isoproterenol, read-out: Emax (% iso) (%) [B2-AR]; for EC50: cAMP HTRF, read-out: pEC50 [B2-AR] (converted)
T1 construct: expressed in transfected cells; host or cells: CHO-K1
T1 sequence (P07550 whole entry, species assumed): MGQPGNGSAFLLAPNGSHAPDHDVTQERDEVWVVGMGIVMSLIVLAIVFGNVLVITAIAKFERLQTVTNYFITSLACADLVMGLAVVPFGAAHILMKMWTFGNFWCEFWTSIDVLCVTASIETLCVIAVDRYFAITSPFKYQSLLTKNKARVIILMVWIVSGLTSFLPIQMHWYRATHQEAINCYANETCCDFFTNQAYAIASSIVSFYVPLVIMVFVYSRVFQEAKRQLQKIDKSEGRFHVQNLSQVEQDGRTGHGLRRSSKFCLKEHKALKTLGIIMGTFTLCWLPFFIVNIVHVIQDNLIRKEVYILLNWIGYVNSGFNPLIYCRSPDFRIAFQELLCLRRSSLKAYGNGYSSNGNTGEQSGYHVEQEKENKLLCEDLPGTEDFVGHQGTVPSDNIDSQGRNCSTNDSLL
Description: (§1) cAMP homogeneous time-resolved fluorescence (HTRF): experimental methods. Compound efficacy is determined using the cAMP Gs dynamic HTRF assay (Cisbio, catalog #62AM4PEC) largely following the manufacturer's instructions, also detailed below.
(§2) Standard serial dilution curves are 10-point, 5-fold dilutions starting from a highest concentration of 10 μM. Controls present on every assay plate are 0.1% DMSO (vehicle control), 1 μM isoproterenol (full beta-adrenergic agonist control) and […] xamoterol (partial beta-adrenergic agonist control). […] Assay plates are centrifuged at 500×g for 10 seconds. Compounds and IBMX are prepared at 2× final dose to compensate for addition of cells.
(§3) Cell preparation: 1× stimulation buffer, washing PBS (Dulbecco's phosphate-buffered saline, − Mg − Ca; Caisson Labs, catalog #PBL01), assay PBS (Dulbecco's phosphate-buffered saline, + Mg, + Ca; Caisson Labs, catalog #PBL02) and Versene (0.02% EDTA disodium salt solution in PBS without calcium or magnesium; Caisson Labs, catalog #EDL01) are pre-warmed to 37° C. Cells expressing beta-adrenergic receptor were washed in washing PBS to remove growth medium and then released from the surface by incubating with Versene for 5-10 minutes at 37° C. Cells are harvested using assay PBS, counted manually by hemocytometer or by an automated cell counter, pelleted by centrifugation (200×g, 5 minutes) and resuspended in 37° C. 1× stimulation buffer to a final density of 1.5×10^6 cells/mL. 5 μL of the suspended cell solution (7500 cell total) are added to all wells of the 384 well assay plate, the assay plate was covered with an Axygen® plate seal (Corning PCR-SP) and incubated in a humidified 37° C. environment supplemented with 5% CO2 for 30 minutes.
(§4) HTRF reagent addition, reading and data analysis: After 30 minutes of cell stimulation with test compound, the assay plates are centrifuged at 500×g for 10 seconds, and incubation was stopped with the addition of 5 μL cAMP-D2 acceptor, diluted 1:21 in detection and lysis buffer 2 (Cisbio 62CL2FDF) was added to all cells. Subsequently, 5 μL Anti-cAMP-Eu Donor, diluted 1:21 in detection and lysis buffer 2, was added to cells. Plates were sealed and reactions gently ‘vortexed’ at 900 rpm on a Heidolph Titramax 1000 for at least 30 minutes at room temperature. Plates are centrifuged again at 500×g for 10 seconds, and HTRF was measured using a Tecan Spark plate reader at 50 flashes per well. […] Potency estimates (EC50 and pEC50) are derived from the four-parameter nonlinear regression of the concentration-effect curve and an estimate of relative efficacy is determined by comparing the magnitude of the test compound HTRF signal window (min−max dose) with the signal window of the full agonist control, isoproterenol.

B1-AR = target: T2, B1-AR (Homo sapiens, UniProt P08588); experiment: cAMP Gs dynamic HTRF assay, cells expressing beta-adrenergic receptor (CHO-K1), B1-AR; type: cell-based; conditions: for EC50: cAMP HTRF, read-out: pEC50 [B1-AR] (converted); for Emax: relative to full agonist isoproterenol, read-out: Emax (% iso) (%) [B1-AR]
T2 construct: expressed in transfected cells; host or cells: CHO-K1
T2 sequence (P08588 whole entry, species assumed): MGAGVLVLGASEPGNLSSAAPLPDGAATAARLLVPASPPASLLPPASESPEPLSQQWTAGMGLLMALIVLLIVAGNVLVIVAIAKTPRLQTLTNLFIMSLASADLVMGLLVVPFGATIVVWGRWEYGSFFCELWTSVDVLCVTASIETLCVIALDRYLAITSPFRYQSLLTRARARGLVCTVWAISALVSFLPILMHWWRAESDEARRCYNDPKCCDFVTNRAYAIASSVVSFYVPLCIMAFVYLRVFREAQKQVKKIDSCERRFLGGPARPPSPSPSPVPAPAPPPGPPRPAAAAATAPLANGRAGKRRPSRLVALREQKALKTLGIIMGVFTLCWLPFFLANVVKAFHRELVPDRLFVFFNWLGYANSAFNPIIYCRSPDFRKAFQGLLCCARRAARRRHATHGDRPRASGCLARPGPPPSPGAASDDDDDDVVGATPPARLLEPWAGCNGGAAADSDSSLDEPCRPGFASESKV
Description: as §1, §2, §3, §4

SMILES	Emax (B2-AR; CHO-K1, CHO-K1 cells) [%]	EC50 (B2-AR; CHO-K1 cells) [nM]	EC50 (B1-AR) [nM]	Emax (B1-AR) [%]	Emax (B2-AR; CHO-K1 cells) [%]
CCC(C)(C)NC[C@H](O)c1cccc2[nH]nc(Cl)c12 [I-45]	70 to 90	< 10	< 10	70 to 90	
CCC(C)(C)NC[C@H](O)c1cccc2[nH]cc(F)c12 [I-46]	> 90	< 10	< 10	> 90	
CCC(C)(C)NC[C@H](O)c1cccc2[nH]ncc12 [I-47]	> 90	< 10	< 10	70 to 90	
CCC(C)(C)NC[C@H](O)c1cccc2[nH]nc(F)c12 [I-48]	> 90	< 10	< 10	> 90	
CCC(C)(C)NC[C@H](O)c1ccc(Cl)c2[nH]ncc12 [I-49]	70 to 90	< 10	< 10	70 to 90	
CCC(C)(C)NC[C@H](O)c1ccc(F)c2[nH]ncc12 [I-50]		< 10	< 10	70 to 90	70 to 90
CCC(C)(C)NC[C@H](O)c1cc(F)cc2[nH]ncc12 [I-51]		< 10	< 10	70 to 90	> 90
CCC(C)(C)NC[C@H](O)c1cc(C#N)cc2[nH]ncc12 [I-52]	> 90	10 to 100	100 to 1000	70 to 90	
CCC(C)(C)NC[C@H](O)c1cncc2[nH]ncc12 [I-53]		10 to 100	100 to 1000	70 to 90	70 to 90
CCC(C)(C)NC[C@H](O)c1cccc2[nH]nc(C)c12 [I-54]		10 to 100	100 to 1000	70 to 90	70 to 90
Cn1nc(F)c2c([C@@H](O)CNC(C)(C)C)cccc21 [I-55]		< 10	< 10	70 to 90	50 to 70
Cn1ncc2c([C@@H](O)CNC(C)(C)C)ccc(F)c21 [I-56]		< 10	10 to 100	50 to 70	50 to 70
Cn1ncc2c([C@@H](O)CNC(C)(C)C)cc(F)cc21 [I-57]	50 to 70	< 10	10 to 100	70 to 90	
CC(C)(C)NC[C@H](O)c1cc(F)c(Cl)c2[nH]ncc12 [I-58]	70 to 90	< 10	< 10	70 to 90	
COc1cc([C@@H](O)CNC(C)(C)C)c2cn[nH]c2c1F [I-59]	< 50	10 to 100	100 to 1000	< 50	
Cc1ccc([C@@H](O)CNC(C)(C)C)c2c(F)n[nH]c12 [I-60]	70 to 90	< 10	< 10	70 to 90	
Cc1n[nH]c2cc(F)cc([C@@H](O)CNC(C)(C)C)c12 [I-61]		< 10	10 to 100	70 to 90	70 to 90
Cc1c(F)cc([C@@H](O)CNC(C)(C)C)c2cn[nH]c12 [I-62]		< 10	< 10	70 to 90	70 to 90
CC(C)(C)CNC[C@H](O)c1cccc2c1C(F)(F)C(=O)N2 [I-63]		100 to 1000	> 1000	< 50	> 90
Cn1ccc(CNC[C@H](O)c2cccc3[nH]ncc23)n1 [I-64]		100 to 1000	100 to 1000	70 to 90	> 90
Cn1ccc(CNC[C@H](O)c2ccc(F)c3[nH]ncc23)n1 [I-65]		100 to 1000	100 to 1000	50 to 70	70 to 90
CC(C)(C)NC[C@@H](O)c1cncc2[nH]ncc12 [I-66]	> 90	100 to 1000	> 1000	70 to 90	
Cc1cc([C@@H](O)CNC(C)(C)C)c2cn[nH]c2n1 [I-67]	> 90	< 10	10 to 100	> 90	
